The text below walks through data of PMC2576176, “Direct activation of Transient Receptor Potential Vanilloid 1(TRPV1) by Diacylglycerol (DAG)” (Molecular Pain, 2008).

This assay has as its target T1, TRPV1 (transient receptor potential vanilloid 1, capsaicin receptor) (Rattus norvegicus, UniProt O35433).
T1 construct: full-length wild-type rat TRPV1 in pcDNA3.1(+), transient transfection in HEK 293 cells; fura-2 Ca2+ imaging
The assay is described as follows: fura-2 Ca2+ imaging concentration-response in TRPV1-expressing HEK […] cells; whole-cell patch clamp, cobalt uptake, Y511A mutant and competition with capsaicin. The class given is cell-based. (In general: In patch-clamp work, channel activity is measured electrically.)

T1 sequence (O35433 whole entry): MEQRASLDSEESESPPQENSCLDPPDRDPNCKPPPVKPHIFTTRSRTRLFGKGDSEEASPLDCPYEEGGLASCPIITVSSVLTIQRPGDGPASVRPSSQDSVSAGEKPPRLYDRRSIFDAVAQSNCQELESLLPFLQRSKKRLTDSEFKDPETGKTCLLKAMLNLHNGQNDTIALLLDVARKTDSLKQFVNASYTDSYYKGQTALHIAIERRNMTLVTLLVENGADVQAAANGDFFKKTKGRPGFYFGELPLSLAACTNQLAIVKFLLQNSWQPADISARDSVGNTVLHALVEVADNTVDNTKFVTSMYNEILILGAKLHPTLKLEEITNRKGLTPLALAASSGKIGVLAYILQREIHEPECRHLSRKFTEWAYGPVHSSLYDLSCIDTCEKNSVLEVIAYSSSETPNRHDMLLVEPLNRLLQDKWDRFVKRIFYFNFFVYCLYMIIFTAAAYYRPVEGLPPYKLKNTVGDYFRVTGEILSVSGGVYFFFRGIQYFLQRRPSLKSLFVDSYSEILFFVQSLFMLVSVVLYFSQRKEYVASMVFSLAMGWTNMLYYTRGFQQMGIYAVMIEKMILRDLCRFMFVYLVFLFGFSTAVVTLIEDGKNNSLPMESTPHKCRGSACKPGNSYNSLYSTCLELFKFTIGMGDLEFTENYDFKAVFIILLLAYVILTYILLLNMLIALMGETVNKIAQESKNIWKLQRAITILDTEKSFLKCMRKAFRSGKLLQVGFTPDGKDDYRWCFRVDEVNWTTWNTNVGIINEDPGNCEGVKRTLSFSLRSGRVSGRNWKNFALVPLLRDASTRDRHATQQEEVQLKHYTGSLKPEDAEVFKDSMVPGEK

In general, EC50 refers to the concentration at which the effect is half-maximal. The low end stands for a more potent agent, the high end for a less potent agent. As to `CCCCCCCC/C=C\CCCCCCCC(=O)OC[C@H](CO)OC(C)=O` [OAG, 1-oleoyl-2-acetyl-sn-glycerol], the EC50 came to 13 µM.
